In patent publication US6458978B1, “Fluorous phosphines and process for their preparation” (Atofina Vlissingen B.V., priority 1998, dated 2002):

How the values were obtained:
[1] = Determination of partition coefficients of phosphines in fluorous biphasic systems (ICP-AAS on phosphorus); assay type: physicochemical; conditions: 0° C., 1:1 mixture (v/v)
Source text: For applications in fluorous bi-phasic catalysis and for catalyst recycling by fluorous phase extraction techniques an important feature of the fluorous aryl phosphines and the derived catalytic complexes is the partition coefficient P(P=Cfluorous phase/Corganic phase. C=concentration) in fluorous bi-phasic systems.
11. Determination of Partition Coefficients
The partition coefficients were determinded by dissolving a known amount of phosphine (typically between 11 and 60 μmol) in a fluorous biphasic system either consisting of c-C6F11CF3 (2.000±0.002 mL) and n-pentane, n-octane or toluene (2.006±0.002 mL). The resulting mixture was stirred at 25° C. until all solid had dissolved and equilibrated in a water ice bath (1 h). An aliquot (0.500±0.002 mL) was removed from each layer by syringe. Analysis by ICP-AAS on phosphorus gave the amount of phosphine present, with an accuracy of ±0.3 ppm. A conservative estimate of the experimental error in the partition coefficient is ±1 in the last digit.

[2] = Solubility of dppe and dppe derivatives G{m,x} in perfluorinated and non-fluorinated solvents; assay type: physicochemical; conditions: for solubility at room temperature, FC-72: FC-72: mixture of perfluorinated hexanes
[3] = Hydrogenation of 1-octene under single phase conditions in α,α,α-trifluorotoluene
Method: To be able to directly compare the activities of fluorous derivatives H{1,6} and H{1,8} with non-fluorous [P(C6H4-4-SiMe3)3]3RhCl (H{0}) and the conventional Wilkinson catalyst (PPh3)3RhCl, homogeneous hydrogenation of 1-octene were carried out under single phase conditions in the hybrid solvent α,α,α-trifluorotoluene at atmospheric H2 pressures. Highest rates of hydrogen uptake (14.2 mol.L^−1.h^−1) were measured for 1c at relatively high rhodium and olefine concentrations (entry 2, Table 7). Under these conditions a zero-order dependence in [1-octene] was found up to ca 80% conversion resulting in a linear conversion versus time plot. In all other experiments ([Rh]=4.0-8.0 mM, [1-octene]0=1.46 M) rates of hydrogen uptake were lower (<11 mol.L^−1.h^−1) and conversion versus time plots corresponded to a rate law -d[1-octene]/dt=kobs.[1-octene] for >98% conversion allowing to evaluate catalyst activity in terms of the observed first order rate constant kobs. Since for these experiments the rates of dihydrogen uptake were well below the maximum value obtained in entry 2, diffusion limitation of H2 can be excluded. In addition to kobs, turn over frequencies (TOF in mol.mol^−1.h^−1) were derived from the tangent of a 4^thorder polynomal fit to conversion versus time plots at 25% conversion and serve as a measure of catalyst activity independent of any assumed kinetic relationship with substrate.
Catalytic reactions were carried out under single phase conditions in CF3C6H5 at 80° C. under 1 bar of hydrogen pressure. After >90% conversion (monitored by the H2 uptake) volatiles were distilled off and analyzed by GC. Activities (TOF) were determined for 25% conversion.

[4] = [Rh] 4.0 mM, [1-octene] 1.46 M, T = 80° C., p(H2) = 1 bar, α,α,α-trifluorotoluene
[5] = [Rh] 8.0 mM, [1-octene] 2.92 M, T = 80° C., p(H2) = 1 bar, α,α,α-trifluorotoluene

Structure (SMILES) | Fluorous partition coefficient P = cfluorous phase/corganic phase, n-octane/c-C6F11CF3 [1] | Fluorous partition coefficient P = cfluorous phase/corganic phase, n-pentane/c-C6F11CF3 [1] | Fluorous partition coefficient P = cfluorous phase/corganic phase, toluene/c-C6F11CF3 [1] | also measured
C[Si](CCC(F)(F)C(F)(F)C(F)(F)C(F)(F)C(F)(F)C(F)(F)F)(CCC(F)(F)C(F)(F)C(F)(F)C(F)(F)C(F)(F)C(F)(F)F)c1ccc(P(c2ccc([Si](C)(CCC(F)(F)C(F)(F)C(F)(F)C(F)(F)C(F)(F)C(F)(F)F)CCC(F)(F)C(F)(F)C(F)(F)C(F)(F)C(F)(F)C(F)(F)F)cc2)c2ccc([Si](C)(CCC(F)(F)C(F)(F)C(F)(F)C(F)(F)C(F)(F)C(F)(F)F)CCC(F)(F)C(F)(F)C(F)(F)C(F)(F)C(F)(F)C(F)(F)F)cc2)cc1 [D{2,6}, P[C6H4Si(CH2CH2C6F13)2Me-4]3] | 6.6 | 2.0 | 3.8 | –
C[Si](CCC(F)(F)C(F)(F)C(F)(F)C(F)(F)C(F)(F)C(F)(F)F)(CCC(F)(F)C(F)(F)C(F)(F)C(F)(F)C(F)(F)C(F)(F)F)c1ccc(P(CCP(c2ccc([Si](C)(CCC(F)(F)C(F)(F)C(F)(F)C(F)(F)C(F)(F)C(F)(F)F)CCC(F)(F)C(F)(F)C(F)(F)C(F)(F)C(F)(F)C(F)(F)F)cc2)c2ccc([Si](C)(CCC(F)(F)C(F)(F)C(F)(F)C(F)(F)C(F)(F)C(F)(F)F)CCC(F)(F)C(F)(F)C(F)(F)C(F)(F)C(F)(F)C(F)(F)F)cc2)c2ccc([Si](C)(CCC(F)(F)C(F)(F)C(F)(F)C(F)(F)C(F)(F)C(F)(F)F)CCC(F)(F)C(F)(F)C(F)(F)C(F)(F)C(F)(F)C(F)(F)F)cc2)cc1 [G{2,6}] | – | – | – | solubility at room temperature, THF [2]: + (+: >0.1 g/ml); solubility at room temperature, FC-72 [2]: + (+: >0.1 g/ml)
C[Si](C)(C)c1ccc(P(CCP(c2ccc([Si](C)(C)C)cc2)c2ccc([Si](C)(C)C)cc2)c2ccc([Si](C)(C)C)cc2)cc1 [G{0}, (Me3SiC6H4-4)2PCH2CH2P(C6H4SiMe3-4)2, reference compound] | – | – | – | solubility at room temperature, THF [2]: + (+: >0.1 g/ml); solubility at room temperature, FC-72 [2]: − (−: <0.01 g/ml)
FC(F)(F)C(F)(F)C(F)(F)C(F)(F)C(F)(F)C(F)(F)C(F)(F)C(F)(F)CC[Si](CCC(F)(F)C(F)(F)C(F)(F)C(F)(F)C(F)(F)C(F)(F)C(F)(F)C(F)(F)F)(CCC(F)(F)C(F)(F)C(F)(F)C(F)(F)C(F)(F)C(F)(F)C(F)(F)C(F)(F)F)c1ccc(P(c2ccc([Si](CCC(F)(F)C(F)(F)C(F)(F)C(F)(F)C(F)(F)C(F)(F)C(F)(F)C(F)(F)F)(CCC(F)(F)C(F)(F)C(F)(F)C(F)(F)C(F)(F)C(F)(F)C(F)(F)C(F)(F)F)CCC(F)(F)C(F)(F)C(F)(F)C(F)(F)C(F)(F)C(F)(F)C(F)(F)C(F)(F)F)cc2)c2ccc([Si](CCC(F)(F)C(F)(F)C(F)(F)C(F)(F)C(F)(F)C(F)(F)C(F)(F)C(F)(F)F)(CCC(F)(F)C(F)(F)C(F)(F)C(F)(F)C(F)(F)C(F)(F)C(F)(F)C(F)(F)F)CCC(F)(F)C(F)(F)C(F)(F)C(F)(F)C(F)(F)C(F)(F)C(F)(F)C(F)(F)F)cc2)cc1 [D{3,8}] | 4.8 | 7.0 | 1.0 | –
FC(F)(F)C(F)(F)C(F)(F)C(F)(F)C(F)(F)C(F)(F)CC[Si](CCC(F)(F)C(F)(F)C(F)(F)C(F)(F)C(F)(F)C(F)(F)F)(CCC(F)(F)C(F)(F)C(F)(F)C(F)(F)C(F)(F)C(F)(F)F)c1ccc(P(c2ccc([Si](CCC(F)(F)C(F)(F)C(F)(F)C(F)(F)C(F)(F)C(F)(F)F)(CCC(F)(F)C(F)(F)C(F)(F)C(F)(F)C(F)(F)C(F)(F)F)CCC(F)(F)C(F)(F)C(F)(F)C(F)(F)C(F)(F)C(F)(F)F)cc2)c2ccc([Si](CCC(F)(F)C(F)(F)C(F)(F)C(F)(F)C(F)(F)C(F)(F)F)(CCC(F)(F)C(F)(F)C(F)(F)C(F)(F)C(F)(F)C(F)(F)F)CCC(F)(F)C(F)(F)C(F)(F)C(F)(F)C(F)(F)C(F)(F)F)cc2)cc1 [D{3,6}] | 3.7 | 5.3 | 2.1 | –
C[Si](C)(CCC(F)(F)C(F)(F)C(F)(F)C(F)(F)C(F)(F)C(F)(F)C(F)(F)C(F)(F)F)c1ccc(P(c2ccc([Si](C)(C)CCC(F)(F)C(F)(F)C(F)(F)C(F)(F)C(F)(F)C(F)(F)C(F)(F)C(F)(F)F)cc2)c2ccc([Si](C)(C)CCC(F)(F)C(F)(F)C(F)(F)C(F)(F)C(F)(F)C(F)(F)C(F)(F)C(F)(F)F)cc2)cc1 [D{1,8}] | 1.4 | 0.78 | 1.06 | –
C[Si](C)(C)c1ccc([PH](c2ccc([Si](C)(C)C)cc2)(c2ccc([Si](C)(C)C)cc2)[Rh]([Cl])([PH](c2ccc([Si](C)(C)C)cc2)(c2ccc([Si](C)(C)C)cc2)c2ccc([Si](C)(C)C)cc2)[PH](c2ccc([Si](C)(C)C)cc2)(c2ccc([Si](C)(C)C)cc2)c2ccc([Si](C)(C)C)cc2)cc1 [H{0}, [P(C6H4-4-SiMe3)3]3RhCl] | – | – | – | TOF(25%), turn over frequency at 25% conversion [3, 4]: 1610 h⁻¹; TON (mole of olefin/mole of Rh) [3, 4]: 336; conversion [3, 4]: 92%; kobs (first order rate constant) [3, 4]: 7.5(2) h^−1; TOF(25%), turn over frequency at 25% conversion [3, 5]: 1910 h⁻¹; TON (mole of olefin/mole of Rh) [3, 5]: 361; conversion [3, 5]: 99%; kobs (zero order in olefin up to 80% conversion) [3, 5]: ^eZero order in olefin up to 80% conversion, kobs = 14.2(1) mol.L^−1.h^−1.; activity relative to Wilkinson's catalyst ([3]; derived from Table 7): > 1.5 times; Highest rate of hydrogen uptake ([3]; relatively high rhodium and olefine concentrations (entry 2, Table 7)): 14.2 mol/L/h
C[Si](C)(C)c1ccc(P(c2ccc([Si](C)(C)C)cc2)c2ccc([Si](C)(C)C)cc2)cc1 [D{0}, P(C6H4SiMe3-4)3, reference compound] | – | – | 0.007 | –
C[Si](CCC(F)(F)C(F)(F)C(F)(F)C(F)(F)C(F)(F)C(F)(F)C(F)(F)C(F)(F)F)(CCC(F)(F)C(F)(F)C(F)(F)C(F)(F)C(F)(F)C(F)(F)C(F)(F)C(F)(F)F)c1ccc(P(c2ccc([Si](C)(CCC(F)(F)C(F)(F)C(F)(F)C(F)(F)C(F)(F)C(F)(F)C(F)(F)C(F)(F)F)CCC(F)(F)C(F)(F)C(F)(F)C(F)(F)C(F)(F)C(F)(F)C(F)(F)C(F)(F)F)cc2)c2ccc([Si](C)(CCC(F)(F)C(F)(F)C(F)(F)C(F)(F)C(F)(F)C(F)(F)C(F)(F)C(F)(F)F)CCC(F)(F)C(F)(F)C(F)(F)C(F)(F)C(F)(F)C(F)(F)C(F)(F)C(F)(F)F)cc2)cc1 [D{2,8}] | 11 | 3.3 | 3.8 | –
C[Si](C)(CCC(F)(F)C(F)(F)C(F)(F)C(F)(F)C(F)(F)C(F)(F)F)c1ccc(P(c2ccc([Si](C)(C)CCC(F)(F)C(F)(F)C(F)(F)C(F)(F)C(F)(F)C(F)(F)F)cc2)c2ccc([Si](C)(C)CCC(F)(F)C(F)(F)C(F)(F)C(F)(F)C(F)(F)C(F)(F)F)cc2)cc1 [D{1,6}] | 0.42 | 0.53 | 0.13 | –
